Results from US20140171431A1, “AZOLE HETEROCYCLIC COMPOUND, PREPARATION METHOD, PHARMACEUTICAL COMPOSITION AND USE” (priority 2011, published 2014).
Like-named read-outs stand apart in the source and are kept apart here.

Experiments:
Lp-PLA2 in human serum = biological target: T1, Lp-PLA2 in human serum (Homo sapiens, UniProt Q13093); experiment: In vitro inhibitory activity towards the enzyme Lp-PLA2 in human serum, [3H]PAF substrate; format: biochemical; details: for inhibition at 0.01 µM: 10 nM; for inhibition at 0.1 µM: 100 nM
T1 construct: from tissue
T1 sequence (Q13093 22-441): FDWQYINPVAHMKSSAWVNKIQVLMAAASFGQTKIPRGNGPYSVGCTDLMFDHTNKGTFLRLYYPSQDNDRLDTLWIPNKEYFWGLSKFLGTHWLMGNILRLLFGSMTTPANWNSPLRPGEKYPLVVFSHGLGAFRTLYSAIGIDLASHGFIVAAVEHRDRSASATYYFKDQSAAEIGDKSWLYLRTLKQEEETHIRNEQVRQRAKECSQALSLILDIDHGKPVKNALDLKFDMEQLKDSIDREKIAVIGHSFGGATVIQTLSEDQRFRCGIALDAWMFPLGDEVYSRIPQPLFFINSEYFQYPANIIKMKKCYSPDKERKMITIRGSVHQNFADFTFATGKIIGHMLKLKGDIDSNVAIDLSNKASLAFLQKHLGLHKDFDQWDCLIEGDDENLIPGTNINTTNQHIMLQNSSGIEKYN
Method in brief: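 Human plasma was preincubated with compound 10 min at 37 °C in 50 mM HEPES, 150 mM NaCl, pH 7.4. Reaction started with 20 nM [3H]PAF, run 10 min at 37 °C, then extracted with CHCl3/MeOH (2:1); radioactivity of the supernatant was counted.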

Lp-PLA2 in rabbit serum = biological target: T2, Lp-PLA2 in rabbit serum (Oryctolagus cuniculus, UniProt G1SE06); experiment: In vitro inhibitory activity towards the enzyme Lp-PLA2 in rabbit serum, [3H]PAF substrate; format: biochemical; details: for inhibition at 0.1 µM: 100 nM
T2 construct: from tissue; host or cells: rabbit serum
T2 sequence (G1SE06 22-423): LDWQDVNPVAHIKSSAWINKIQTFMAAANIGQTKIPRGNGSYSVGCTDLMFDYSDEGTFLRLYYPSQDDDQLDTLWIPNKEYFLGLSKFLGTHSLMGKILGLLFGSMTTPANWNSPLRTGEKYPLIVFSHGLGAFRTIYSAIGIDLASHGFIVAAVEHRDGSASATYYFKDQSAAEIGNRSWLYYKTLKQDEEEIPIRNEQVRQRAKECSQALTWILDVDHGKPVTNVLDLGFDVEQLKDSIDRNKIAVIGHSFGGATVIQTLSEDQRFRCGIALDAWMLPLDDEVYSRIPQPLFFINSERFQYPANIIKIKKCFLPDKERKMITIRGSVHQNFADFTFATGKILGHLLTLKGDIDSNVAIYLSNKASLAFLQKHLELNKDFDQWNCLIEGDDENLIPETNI

[1] = human serum, read-out: inhibition, %
[2] = read-out: inhibitory rate towards the human serum derived Lp-PLA2 enzyme
[3] = rabbit serum, read-out: inhibition, %
[4] = read-out: inhibitory rate towards the rabbit serum derived Lp-PLA2 enzyme

| Structure (SMILES) | inhibition at 0.01 µM (Lp-PLA2 in human serum; [1]) [%] | inhibition at 0.01 µM (Lp-PLA2 in human serum; [2]) [%] | inhibition at 0.1 µM (Lp-PLA2 in human serum; human serum) [%] | inhibition at 0.1 µM (Lp-PLA2 in rabbit serum; [3]) [%] | inhibition at 0.1 µM (Lp-PLA2 in rabbit serum; [4]) [%] | inhibition at 1 µM (Lp-PLA2 in rabbit serum; 1 μM, rabbit serum) [%] |
| --- | --- | --- | --- | --- | --- | --- |
| C[N+](C)(C)Cc1nnc(Cn2c(SCc3ccc(F)cc3)nc(=O)c3c2CCC3)n1Cc1ccc(-c2ccc(C(F)(F)F)cc2)cc1 [Example 77, 1-(5-((2-(4-fluorobenzylthio)-4-oxo-4,5,6,7-tetrahydro-1H-cyclopenta[d]pyrimidin-1-yl)methyl)-4-((4′-(trifluoromethyl)biphenyl-4-yl)methyl)-4H-1,2,4-triazol-3-yl)-N,N,N-trimethylmethanaminium iodide] | 97 | > 80 | 98 | 93 | > 90 | – |
| CCCc1nnc(Cn2c(SCc3ccc(F)cc3)nc(=O)c3c2CCC3)n1Cc1ccc(-c2ccc(C(F)(F)F)cc2)cc1 [Example 66, 2-(4-fluorobenzylthio)-1-((5-propyl-4-((4′-(trifluoromethyl)biphenyl-4-yl)methyl)-4H-1,2,4-triazol-3-yl)methyl)-6,7-dihydro-1H-cyclopenta[d]pyrimidin-4(5H)-one] | 88 | – | 98 | 88 | – | – |
| CN(C)C1CCN(Cc2nnc(Cn3c(SCc4ccc(F)cc4)nc(=O)c4c3CCC4)n2Cc2ccc(-c3ccc(C(F)(F)F)cc3)cc2)CC1 [Example 103, 1-((5-((4-(dimethylamino)piperidin-1-yl)methyl)-4-((4′-(trifluoromethyl)biphenyl-4-yl)methyl)-4H-1,2,4-triazol-3-yl)methyl)-2-(4-fluorobenzylthio)-6,7-dihydro-1-cyclopenta[d]pyrimidin-4(5H)-one] | 71 | – | 98 | 82 | – | – |
| CN(CCN1CCCCC1)Cc1onc(Cn2c(SCc3ccc(F)cc3)nc(=O)c3c2CCC3)c1Cc1ccc(-c2ccc(C(F)(F)F)cc2)cc1 [Example 161, 2-(4-fluorobenzylthio)-1-((5-((methyl(2-(piperidin-1-yl)ethyl)amino)methyl)-4-((4′-(trifluoromethyl)biphenyl-4-yl)methyl)isoxazol-3-yl)methyl)-6,7-dihydro-1H-cyclopenta[d]pyrimidin-4(5H)-one] | 100 | > 80 | – | 99 | > 90 | – |
| CCN(CC)CCN(C)Cc1onc(Cn2c(SCc3ccc(F)cc3)nc(=O)c3c2CCC3)c1Cc1ccc(-c2ccc(C(F)(F)F)cc2)cc1 [Example 159, 1-((5-(((2-(diethylamino)ethyl)(methyl)amino)methyl)-4-((4′-(trifluoromethyl)biphenyl-4-yl)methyl)isoxazol-3-yl)methyl)-2-(4-fluorobenzylthio)-6,7-dihydro-1H-cyclopenta[d]pyrimidin-4(5H)-one] | 100 | > 80 | – | 97 | > 90 | – |
| C[N+](C)(CCO)Cc1nnc(Cn2c(SCc3ccc(F)cc3)nc(=O)c3c2CCC3)n1Cc1ccc(-c2ccc(C(F)(F)F)cc2)cc1 [Example 122, N-((5-((2-(4-fluorobenzylthio)-4-oxo-4,5,6,7-tetrahydro-1H-cyclopenta[d]pyrimidin-1-yl)methyl)-4-((4′-(trifluoromethyl)biphenyl-4-yl)methyl)-4H-1,2,4-triazol-3-yl)methyl)-2-hydroxy-N,N-dimethylethanaminium chloride] | 92 | > 80 | – | 95 | > 90 | – |
| C=C(OC(C)=O)c1nnc(Cn2c(SCc3ccc(F)cc3)nc(=O)c3c2CCC3)n1Cc1ccc(-c2ccc(C(F)(F)F)cc2)cc1 [Example 119, 1-(5-((2-(4-fluorobenzylthio)-4-oxo-4,5,6,7-tetrahydro-1H-cyclopenta[d]pyrimidin-1-yl)methyl)-4-((4′-(trifluoromethyl)biphenyl-4-yl)methyl)-4H-1,2,4-triazol-3-yl)vinyl acetate] | 94 | > 80 | 98 | 93 | > 90 | – |
| C[N+](C)(Cc1ccc(F)cc1)Cc1nnc(Cn2c(SCc3ccc(F)cc3)nc(=O)c3c2CCC3)n1Cc1ccc(-c2ccc(C(F)(F)F)cc2)cc1 [Example 76, N-(4-fluorobenzyl)-1-(5-((2-(4-fluorobenzylthio)-4-oxo-4,5,6,7-tetrahydro-1H-cyclopenta[d]pyrimidin-1-yl)methyl)-4-((4′-(trifluoromethyl)biphenyl-4-yl)methyl)-4 H-1,2,4-triazol-3-yl)-N,N-dimethylmethanaminium bromide] | 100 | > 80 | 100 | 97 | > 90 | – |
| CCN1CCCC1CNCc1nnc(Cn2c(SCc3ccc(F)cc3)nc(=O)c3c2CCC3)n1Cc1ccc(-c2ccc(C(F)(F)F)cc2)cc1 (racemic) [Example 83, (±)-1-((5-(((1-ethylpyrrolidin-2-yl)methylamino)methyl)-4-((4′-(trifluoromethyl)biphenyl-4-yl)methyl)-4H-1,2,4-triazol-3-yl)methyl)-2-(4-fluorobenzylthio)-6,7-dihydro-1H-cyclopenta[d]pyrimidin-4(5H)-one] | 81 | > 80 | 95 | 93 | > 90 | – |

Further lines, results first:

| inhibition at 0.01 µM (Lp-PLA2 in human serum; [1]) [%] | inhibition at 0.01 µM (Lp-PLA2 in human serum; [2]) [%] | inhibition at 0.1 µM (Lp-PLA2 in human serum; human serum) [%] | inhibition at 0.1 µM (Lp-PLA2 in rabbit serum; [3]) [%] | inhibition at 0.1 µM (Lp-PLA2 in rabbit serum; [4]) [%] | inhibition at 1 µM (Lp-PLA2 in rabbit serum; 1 μM, rabbit serum) [%] | Structure (SMILES) |
| --- | --- | --- | --- | --- | --- | --- |
| 68 | – | 92 | 75 | – | – | CCS(=O)(=O)NCc1nnc(Cn2c(SCc3ccc(F)cc3)nc(=O)c3c2CCC3)n1Cc1ccc(-c2ccc(C(F)(F)F)cc2)cc1 [Example 111, N-((5-((2-(4-fluorobenzylthio)-4-oxo-4,5,6,7-tetrahydro-1H-cyclopenta[d]pyrimidin-1-yl)methyl)-4-((4′-(trifluoromethyl)biphenyl-4-yl)methyl)-4H-1,2,4-triazol-3-yl)methyl)ethanesulfonamide] |
| 70 | – | 91 | 68 | – | – | CN1CCN(Cc2nnc(Cn3c(SCc4ccc(F)cc4)nc(=O)c4c3CCC4)n2Cc2ccc(-c3ccc(C(F)(F)F)cc3)cc2)CC1 [Example 107, 2-(4-fluorobenzylthio)-1-((5-((4-methylpiperazin-1-yl)methyl)-4-((4′-(trifluoromethyl)biphenyl-4-yl)methyl)-4H-1,2,4-triazol-3-yl)methyl)-6,7-dihydro-1H-cyclopenta[d]pyrimidin-4(5H)-one] |
| 56 | – | 91 | 64 | – | – | CNC(=S)NCc1nnc(Cn2c(SCc3ccc(F)cc3)nc(=O)c3c2CCC3)n1Cc1ccc(-c2ccc(C(F)(F)F)cc2)cc1 [Example 113, 1-((5-((2-(4-fluorobenzylthio)-4-oxo-4,5,6,7-tetrahydro-1H-cyclopenta[d]pyrimidin-1-yl)methyl)-4-((4′-(trifluoromethyl)biphenyl-4-yl)methyl)-4H-1,2,4-triazol-3-yl)methyl)-3-methylthiourea] |
| 66 | – | – | 83 | – | – | CCN(CC)CCN(CC(=O)O)Cc1nnc(Cn2c(SCc3ccc(F)cc3)nc(=O)c3c2CCC3)n1Cc1ccc(-c2ccc(C(F)(F)F)cc2)cc1 [Example 135, 2-((2-(diethylamino)ethyl)((3-((2-(4-fluorobenzylthio)-4-oxo-4,5,6,7-tetrahydro-1H-cyclopenta[d]pyrimidin-1-yl)methyl)-4-((4′-(trifluoromethyl)biphenyl-4-yl)methyl)-4H-1,2,4-triazol-5-yl)methyl)amino)acetic acid] |
| 75 | – | 89 | 87.1 | – | 97.2 | CN(C)Cc1cnc(Cn2c(SCc3ccc(F)cc3)nc(=O)c3c2CCC3)n1Cc1ccc(-c2ccc(C(F)(F)F)cc2)cc1 [Example 46, 1-((5-((dimethylamino)methyl)-1-((4′-(trifluoromethyl)biphenyl-4-yl)methyl)-1H-imidazol-2-yl)methyl)-2-(4-fluorobenzylthio)-6,7-dihydro-1H-cyclopenta[d]pyrimidin-4(5H)-one] |
| 98 | > 80 | – | 98 | > 90 | – | CN(C)CCN(C)Cc1onc(Cn2c(SCc3ccc(F)cc3)nc(=O)c3c2CCC3)c1Cc1ccc(-c2ccc(C(F)(F)F)cc2)cc1 [Example 158, 1-((5-(((2-(dimethylamino)ethyl)(methyl)amino)methyl)-4-((4′-(trifluoromethyl)biphenyl-4-yl)methyl)isoxazol-3-yl)methyl)-2-(4-fluorobenzylthio)-6,7-dihydro-1H-cyclopenta[d]pyrimidin-4(5H)-one] |
